From patent US9023821B2, “Use of MicroRNA for treating diseases associated with a dysfunction of the cilia in multiciliated epithelial cells” (Centre National de la Recherche Scientifique, priority 2009, dated 2015)

Tests used:
[1] = system: human airway epithelial cells (HAECs); assay: High-throughput sequencing (HTS) of miRNAs at four stages of differentiation of HAECs; settings: for Modulation (ratio of the level of intensity of expression in log2 in two stages of differentiation) measured by high-throughput sequencing, D7 − D0 / Modulation (ratio of the level of intensity of expression in log2 in two stages of differentiation) measured by high-throughput sequencing, FC − D7 / Modulation (ratio of the level of intensity of expression in log2 in two stages of differentiation) measured by high-throughput sequencing, WD − D0 / Modulation (ratio of the level of intensity of expression in log2 in two stages of differentiation) measured by high-throughput sequencing, WD − FC / Level of intensity of expression in log2 measured by high-throughput sequencing, D0 / Level of intensity of expression in log2 measured by high-throughput sequencing, D7 / Level of intensity of expression in log2 measured by high-throughput sequencing, FC / Level of intensity of expression in log2 measured by high-throughput sequencing, WD: Table VI; for Modulation (ratio of the level of intensity of expression in log2 in two stages of differentiation), D7 − D0 / Modulation (ratio of the level of intensity of expression in log2 in two stages of differentiation), FC − D7 / Modulation (ratio of the level of intensity of expression in log2 in two stages of differentiation), WD − FC / Abundance (%), D0 / Abundance (%), D7 / Abundance (%), FC / Abundance (%), WD: HTS; for Abundance (%), D0: ALI-D0; for Abundance (%), D7: ALI-D7; for Abundance (%), FC: ALI-FC; for Abundance (%), WD: ALI-WD; for Level of intensity of expression in log2 At the differentiated stage (WD) measured in HTS: healthy human airway epithelial tissue; for Level of intensity of expression in log2 measured by high-throughput sequencing, D0: stage D0; for Level of intensity of expression in log2 measured by high-throughput sequencing, D7: stage D7; for Level of intensity of expression in log2 measured by high-throughput sequencing, FC: stage FC; for Level of intensity of expression in log2 At the differentiated stage (WD) measured in HTS / Level of intensity of expression in log2 measured by high-throughput sequencing, WD: stage WD
Method in brief: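 Total RNA (with small RNAs) from air-liquid-interface HAECs at ALI-D0, D7, first cilia (~14 d) and fully differentiated (~21 d); adaptor-ligated SOLiD small-RNA libraries, RT-PCR, gel-selected ~105-150 bases. Counts normalized to 10^6 sequences as % abundance; linear-model/empirical Bayes; kept >1% abundance, |Log2 Ratio| <0.5, adjusted P <0.05.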

[2] = system: human airway epithelial cells (HAECs); assay: Agilent miRNA chips, miRNA expression at four stages of differentiation of HAECs; settings: for Modulation (ratio of the level of intensity of expression in log2 in two stages of differentiation) measured with the Agilent chips, D7 − D0 / Modulation (ratio of the level of intensity of expression in log2 in two stages of differentiation) measured with the Agilent chips, FC − D7 / Modulation (ratio of the level of intensity of expression in log2 in two stages of differentiation) measured with the Agilent chips, WD − D0 / Modulation (ratio of the level of intensity of expression in log2 in two stages of differentiation) measured with the Agilent chips, WD − FC / Level of intensity of expression in log2 measured with the Agilent chips, D0 / Level of intensity of expression in log2 measured with the Agilent chips, D7 / Level of intensity of expression in log2 measured with the Agilent chips, FC / Level of intensity of expression in log2 measured with the Agilent chips, WD: Table VI; for Level of intensity of expression in log2 measured with the Agilent chips, D0: stage D0; for Level of intensity of expression in log2 measured with the Agilent chips, D7: stage D7; for Level of intensity of expression in log2 measured with the Agilent chips, FC: stage FC; for Level of intensity of expression in log2 measured with the Agilent chips, WD: stage WD; for Modulation (ratio of the level of intensity of expression in log2 at two stages of differentiation), FC − D7 / Modulation (ratio of the level of intensity of expression in log2 at two stages of differentiation), WD − FC: Agilent miRNA chips, Table V
Method in brief: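 RNA from the same patients used for small-RNA sequencing was labelled and hybridized to a Human miRNA Microarray v2 (866 human and 89 human viral miRNAs, covering miRBase v.12.0) with the kit's labelling and hybridization protocol, giving miRNA expression profiles to compare against the sequencing data.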

[3] = system: basal cells and pyramidal cells of the airway epithelium; assay: miRNA expression in sorted basal cells versus pyramidal cells (ciliated + secretory), HTS and Agilent chips; design: species or system human; settings: for Modulation of expression of the miRNAs in pyramidal cells (323(−)) relative to basal cells 323(+): HTS and Agilent chips; for Intensity of the level of expression in log2 in pyramidal cells (323(−)): pyramidal cells (ciliated + secretory)
Method in brief: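 Nasal polyp or concha epithelial cells from 3 donors FACS-sorted into CD151+/tissue factor+ basal cells and CD151−/TF− pyramidal (ciliated plus mucus-secreting) cells, excluding dead (DAPI) cells and doublets. miRNA profiles from total RNA obtained by Agilent chips or high-throughput sequencing.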

Substance	Modulation (ratio of the level of intensity of expression in log2 in two stages of differentiation) measured by high-throughput sequencing, D7 − D0 [1]	Modulation (ratio of the level of intensity of expression in log2 in two stages of differentiation) measured by high-throughput sequencing, FC − D7 [1]	Modulation (ratio of the level of intensity of expression in log2 in two stages of differentiation) measured by high-throughput sequencing, WD − D0 [1]	Modulation (ratio of the level of intensity of expression in log2 in two stages of differentiation) measured by high-throughput sequencing, WD − FC [1]	Level of intensity of expression in log2 At the differentiated stage (WD) measured in HTS [1]	Level of intensity of expression in log2 measured by high-throughput sequencing, D0 [1]	Level of intensity of expression in log2 measured by high-throughput sequencing, D7 [1]	Level of intensity of expression in log2 measured by high-throughput sequencing, FC [1]	Level of intensity of expression in log2 measured by high-throughput sequencing, WD [1]	Modulation (ratio of the level of intensity of expression in log2 in two stages of differentiation) measured with the Agilent chips, D7 − D0 [2]	Modulation (ratio of the level of intensity of expression in log2 in two stages of differentiation) measured with the Agilent chips, FC − D7 [2]	Modulation (ratio of the level of intensity of expression in log2 in two stages of differentiation) measured with the Agilent chips, WD − D0 [2]	Modulation (ratio of the level of intensity of expression in log2 in two stages of differentiation) measured with the Agilent chips, WD − FC [2]	Level of intensity of expression in log2 measured with the Agilent chips, D0 [2]	Level of intensity of expression in log2 measured with the Agilent chips, D7 [2]	Level of intensity of expression in log2 measured with the Agilent chips, FC [2]	Level of intensity of expression in log2 measured with the Agilent chips, WD [2]	Modulation of expression of the miRNAs in pyramidal cells (323(−)) relative to basal cells 323(+) [3]	Intensity of the level of expression in log2 in basal cells (323(+)) [3]	Intensity of the level of expression in log2 in pyramidal cells (323(−)) [3]	further results
hsa-miR-191: human miRNA, SEQ ID No. 13 (CAACGGAAUCCCAAAAGCAGCUG; expressed or natural sequence; listed as Homo sapiens)	0.90 log2	0.84 log2	2.15 log2	0.42 log2	16.82 log2	14.67 log2	15.57 log2	16.40 log2	16.82 log2	2.32 log2	0.29 log2	2.31 log2	−0.30 log2	0.64 log2	2.97 log2	3.25 log2	2.95 log2	0.00	0.14 log2	0.14 log2	Modulation (ratio of the level of intensity of expression in log2 in two stages of differentiation), D7 − D0 [1]: 0.90 log2; Modulation (ratio of the level of intensity of expression in log2 in two stages of differentiation), FC − D7 [1]: 0.84 log2; Modulation (ratio of the level of intensity of expression in log2 in two stages of differentiation), WD − FC [1]: 0.42 log2; Abundance (%), D0 [1]: 5.71%; Abundance (%), D7 [1]: 10.68%; Abundance (%), FC [1]: 18.46%; Abundance (%), WD [1]: 18.69%
hsa-miR-193b: human miRNA, SEQ ID No. 14 (AACUGGCCCUCAAAGUCCCGCU; expressed or natural sequence; listed as Homo sapiens)	−1.17 log2	−0.90 log2	−1.60 log2	0.48 log2	11.67 log2	13.26 log2	12.09 log2	11.19 log2	11.67 log2	−0.67 log2	−1.19 log2	−1.93 log2	−0.07 log2	8.62 log2	7.95 log2	6.76 log2	6.69 log2	−3.57	3.90 log2	0.33 log2	Modulation (ratio of the level of intensity of expression in log2 in two stages of differentiation), D7 − D0 [1]: −1.17 log2; Modulation (ratio of the level of intensity of expression in log2 in two stages of differentiation), FC − D7 [1]: −0.90 log2; Modulation (ratio of the level of intensity of expression in log2 in two stages of differentiation), WD − FC [1]: 0.48 log2; Abundance (%), D0 [1]: 2.16%; Abundance (%), D7 [1]: 0.96%; Abundance (%), FC [1]: 0.50%; Abundance (%), WD [1]: 0.52%; Modulation (ratio of the level of intensity of expression in log2 at two stages of differentiation), FC − D7 [2]: −1.19 log2; Modulation (ratio of the level of intensity of expression in log2 at two stages of differentiation), WD − FC [2]: −0.07 log2; cell type in which the miRNA is specifically expressed ([3]; sorted ciliated/pyramidal versus basal cells): more specific to the basal cells
hsa-miR-200a: human miRNA, SEQ ID No. 16 (UAACACUGUCUGGUAACGAUGU; expressed or natural sequence; listed as Homo sapiens)	1.00 log2	0.67 log2	2.20 log2	0.54 log2	10.96 log2	9.02 log2	10.01 log2	10.68 log2	11.22 log2	1.94 log2	0.20 log2	2.20 log2	0.06 log2	8.64 log2	10.58 log2	10.79 log2	10.84 log2	−0.95	8.80 log2	7.85 log2	Modulation (ratio of the level of intensity of expression in log2 at two stages of differentiation), FC − D7 [2]: 0.20 log2; Modulation (ratio of the level of intensity of expression in log2 at two stages of differentiation), WD − FC [2]: 0.06 log2
hsa-miR-200b: human miRNA, SEQ ID No. 17 (UAAUACUGCCUGGUAAUGAUGA; expressed or natural sequence; listed as Homo sapiens)	0.76 log2	0.56 log2	2.36 log2	1.03 log2	10.64 log2	8.60 log2	9.37 log2	9.93 log2	10.96 log2	2.01 log2	−0.07 log2	2.11 log2	0.17 log2	9.93 log2	11.94 log2	11.87 log2	12.04 log2	−0.15	9.99 log2	9.84 log2	Modulation (ratio of the level of intensity of expression in log2 at two stages of differentiation), FC − D7 [2]: −0.07 log2; Modulation (ratio of the level of intensity of expression in log2 at two stages of differentiation), WD − FC [2]: 0.17 log2
